Legend:
[1] = test system: Male, weanling Sprague-Dawley rats; experiment: Serum calcium (bone calcium mobilization) in vitamin D-deficient rats; assay type: in vivo, rat; settings: for Serum Calcium (bone calcium mobilization): rats on low Ca diet, i.p. daily, average ± SE from 5 animals; for Mobilization of calcium from bone compared with 1α,25-dihydroxyvitamin D3: FIG. 4, in words
Procedure: (§1) Male, weanling Sprague-Dawley rats were placed on Diet 11 (0.47% Ca)+AEK for 11 days, followed by Diet 11 (0.02% Ca)+AEK for 31 days. Dosing (i.p.) began 7 days prior to sacrifice. Doses were given on a daily basis, 24 hours apart. The first 10 cm of the intestine was collected for gut transport studies and serum was collected for bone Ca mobilization analysis. The results are reported in TABLE 1 and illustrated in the graph of FIGS. 3 and 4.
The in vivo tests of serum calcium of rats on a zero calcium diet provides an insight into […] or bone activity of the 2-methylene-24(S) and 24(R) derivatives of 19-nor-1α,25-dihydroxyvitamin D2. […] At the same time, the activity of the 2-methylene-24(S) and 24(R) derivatives of 19-nor-1α,25-dihydroxyvitamin D2 on intestinal calcium transport is approximately equal to that of 1,25-(OH)2D3 (FIG. 3).

[2] = test system: Male, weanling Sprague-Dawley rats; experiment: Intestinal calcium transport in vitamin D-deficient rats; assay type: in vivo, rat; settings: for Intestinal Calcium Transport (S/M): rats on low Ca diet, i.p. daily, average ± SE from 5 animals; for Activity in stimulating intestinal calcium transport compared with 1α,25-dihydroxyvitamin D3: FIG. 3, in words
Procedure: as §1

HL-60 cells = experiment: Differentiation of HL-60 promyelocytes into monocytes; assay type: cell-based; settings: FIG. 2, in words
Procedure: FIG. 2 is a graph illustrating the percent HL-60 cell differentiation as a function of the concentration of 2-methylene-19-nor-24(S)-20(R)-1α,25-dihydroxyvitamin D2, 2-methylene-19-nor-24(R)-20(R)-1α,25-dihydroxyvitamin D2, and 1α,25-dihydroxyvitamin D3.
The differentiation of HL-60 promyelocytic into monocytes was determined as described by Ostrem et al. (J. Biol. Chem. 262, 14164-14171, 1987).

[3] = target: T1, vitamin D pig intestinal nuclear receptor (Sus scrofa, UniProt A3RGC1); experiment: Competitive binding of [3H]-1α,25-(OH)2-D3 to the porcine intestinal vitamin D receptor; settings: FIG. 1, in words
T1 construct: the vitamin D pig intestinal nuclear receptor; from tissue; host or cells: pig intestine (nuclear receptor preparation)
T1 sequence (A3RGC1 1-427): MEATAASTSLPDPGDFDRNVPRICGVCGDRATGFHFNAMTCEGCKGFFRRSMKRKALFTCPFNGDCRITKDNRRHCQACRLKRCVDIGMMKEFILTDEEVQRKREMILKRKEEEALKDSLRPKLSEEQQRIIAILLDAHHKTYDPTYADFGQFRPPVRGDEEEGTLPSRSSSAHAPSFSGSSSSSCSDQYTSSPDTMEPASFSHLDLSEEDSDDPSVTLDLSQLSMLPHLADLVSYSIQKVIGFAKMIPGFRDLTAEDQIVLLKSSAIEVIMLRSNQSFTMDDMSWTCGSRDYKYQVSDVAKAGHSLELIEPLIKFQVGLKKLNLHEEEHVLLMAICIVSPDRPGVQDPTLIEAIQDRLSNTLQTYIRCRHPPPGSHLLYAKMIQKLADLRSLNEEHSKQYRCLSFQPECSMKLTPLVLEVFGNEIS
Procedure: FIG. 1 is a graph illustrating the relative activity of 2-methylene-19-nor-24(S)-20(R)-1α,25-dihydroxyvitamin D2, 2-methylene-19-nor-24(R)-20(R)-1α,25-dihydroxyvitamin D2 and 1α,25-dihydroxyvitamin D3 to compete for binding of [^3H]-1α,25-(OH)2-D3 to the vitamin D pig intestinal nuclear receptor.
Competitive binding of the analogs to the porcine intestinal receptor was carried out by the method described by Dame et al. (Biochemistry 25, 4523-4534, 1986).

SMILES	Serum Calcium (bone calcium mobilization) ([1]; 260 pmol/day/7 days)	Intestinal Calcium Transport (S/M) ([2]; 260 pmol/day/7 days)	Mobilization of calcium from bone compared with 1α,25-dihydroxyvitamin D3 [1]	Serum Calcium (bone calcium mobilization) ([1]; 130 pmol/day/7 days)	HL-60 differentiation potency compared with 1,25(OH)2D3 (HL-60 cells)	Activity in stimulating intestinal calcium transport compared with 1α,25-dihydroxyvitamin D3 [2]	Intestinal Calcium Transport (S/M) ([2]; 130 pmol/day/7 days)	Binding to the vitamin D receptor compared with 1,25(OH)2D3 [3]
C=C1/C(=C\C=C2/CCC[C@]3(C)[C@@H]([C@H](C)CCCC(C)(C)O)CC[C@@H]23)C[C@@H](O)C[C@@H]1O [1,25-(OH)2D3, 1α,25-dihydroxyvitamin D3, reference compound]	5.72 ± 0.14 mg/100 mL	12.54 ± 1.83 S/M						
C=C1[C@H](O)CC(=C/C=C2\CCC[C@@]3(C)C2CCC3[C@H](C)/C=C/[C@@H](C)C(C)(C)O)C[C@H]1O (stereo partly drawn) [(20R,24R)D2, (20R,24R)-1α,25-dihydroxy-2-methylene-19-nor-vitamin D2]	5.02 ± 0.14 mg/100 mL	11.58 ± 0.66 S/M	minimal activity on bone	4.5 ± 0.05 mg/100 mL	significantly more potent than 1,25(OH)2D3	activity about the same as that of 1α,25-dihydroxyvitamin D3	12.2 ± 1.22 S/M	more active than 1,25(OH)2D3
C=C1[C@H](O)CC(=C/C=C2\CCC[C@@]3(C)C2CCC3[C@H](C)/C=C/[C@H](C)C(C)(C)O)C[C@H]1O (stereo partly drawn) [(20R,24S)D2, (20R,24S)-1α,25-dihydroxy-2-methylene-19-nor-vitamin D2]	5.04 ± 0.14 mg/100 mL	11.14 ± 0.74 S/M	minimal activity on bone	4.7 ± 0.13 mg/100 mL	significantly more potent than 1,25(OH)2D3	activity about the same as that of 1α,25-dihydroxyvitamin D3	11.62 ± 0.69 S/M	more active than 1,25(OH)2D3
